Data from US9451775B2, “Heterocyclic compounds as pesticides” (Bayer Intellectual Property GmbH, priority 2008, dated 2016).

Columns and labels:
[1] = logP determination by HPLC (formic acid method); type: physicochemical; details: reversed-phase HPLC column (C18), pH 3.4, HPLC on reversed-phase column (C18), acidic range (pH 3.4), 55° C.; read-out: logP (HCOOH)
In short: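 Reversed-phase C18 HPLC at 55 °C, pH 3.4, with a 4.25 min gradient from 10% to 95% acetonitrile (formic acid-modified water/acetonitrile phases). logP was derived from retention time by linear interpolation between unbranched alkan-2-ones (C3-C16) of known logP.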

[2] = system: green peach aphid (Myzus persicae); experiment: Myzus test (spray treatment); type: in vivo; details: foliar, application rate of 500 g/ha, sprayed Chinese cabbage leaf discs, read-out: activity (effect in %, aphids killed)
Experimental: Myzus Test (Spray Treatment)
• Solvents: 78.0 parts by weight of acetone • 1.5 parts by weight of dimethylformamide • Emulsifier: 0.5 part by weight of alkylaryl polyglycol ether
To produce a suitable preparation of active compound, 1 part by weight of active compound is mixed with the stated amounts of solvents and emulsifier, and the concentrate is diluted with emulsifier-containing water to the desired concentration.
Discs of leaves of Chinese cabbage (Brassica pekinensis) which are heavily infested by all stages of the green peach aphid (Myzus persicae) are sprayed with an active compound preparation of the desired concentration.
After the desired period of time, the effect in % is determined. 100% means that all aphids have been killed; 0% means that none of the aphids have been killed.

chromatographic logP [1]	Structure (SMILES)	pest or weed control at 500 g/ha [2]
2.5	Cc1nc(-c2cccnc2)sc1-c1ccn(-c2ncccc2[N+](=O)[O-])n1 [compound 77]	≥ 80%
2.99	Cc1nc(-c2cccnc2)sc1-c1ccn(-c2cnc(C(F)(F)F)nc2)n1 [compound 78]	≥ 80%
3.94	CCOc1cc(OCC)nc(-n2ccc(-c3sc(-c4cccnc4)nc3C)n2)n1 [compound 79]	≥ 80%
2.27	Cc1nc(-c2cccnc2)sc1-c1ccn(-c2nnc(C(F)(F)F)n2C)n1 [compound 80]	≥ 80%
2.8	COc1cc(OC)nc(-n2ccc(-c3sc(-c4cccnc4)nc3C)n2)n1 [compound 81]	≥ 80%
2.23	Cc1nc(-c2cccnc2)sc1-c1ccn(-c2cnccc2F)n1 [compound 82]	≥ 80%
3.63	Cc1nc(-c2cccnc2)sc1-c1ccn(-c2nnc(C(C)(C)C)s2)n1 [compound 83]	≥ 80%
2.61	CCc1nnc(-n2ccc(-c3sc(-c4cccnc4)nc3C)n2)s1 [compound 84]	≥ 80%
2.8	Cc1nc(-c2cccnc2)sc1-c1ccn(-c2nnc(C(F)F)s2)n1 [compound 85]	≥ 80%
2.72	Cc1nc(-c2cccnc2)sc1-c1ccn(-c2nnc(C3CC3)s2)n1 [compound 86]	≥ 80%
3.47	Cc1nc(-c2cccnc2)sc1-c1ccn(-c2nc(Cl)cs2)n1 [compound 87]	≥ 80%
1.05	c1cnc(-c2nccc(-c3cnc(-c4cccnc4)s3)n2)nc1 [compound 88]	≥ 80%
1.48	c1cnc(-n2ccc(-c3cnc(-c4cccnc4)s3)n2)nc1 [compound 89]	≥ 80%
1.39	Cc1nc(-c2cccnc2)sc1-c1ccncn1 [compound 90]	≥ 80%
2.41	Cc1nc(-c2cccnc2)sc1-c1nc(-c2nnc(C(F)(F)F)n2C)no1 [compound 91]	≥ 80%
3.84	Cc1nc(-c2cccnc2)sc1-c1ccn(-c2cccc(Cl)n2)n1 [compound 92]	≥ 80%
1.86	Cc1nc(-c2cccnc2)sc1-c1nc(N)nc(C(C)F)n1 (stereo not shown) [compound 93]	≥ 80%
3.14	Cc1nc(-c2cccnc2)sc1-c1nccc(C(F)(F)F)n1 [compound 94]	≥ 80%
2.03	COC(=O)c1cccc(-c2sc(-c3cccnc3)nc2C)n1 [compound 95]	≥ 80%
2.58	Cc1nc(-c2cccnc2)sc1-c1cccc(N2CCOCC2)n1 [compound 96]	≥ 80%
2.93	Cc1nc(-c2cccnc2)sc1-c1cccc(-n2cccn2)n1 [compound 97]	≥ 80%

chromatographic logP [1]	Structure (SMILES)	pest or weed control at 500 g/ha [2]
3.55	Cc1nc(-c2cccnc2)sc1-c1cccc(N2CC(C)OC(C)C2)n1 (stereo not shown) [compound 98]	≥ 80%
3.14	Cc1nc(-c2cccnc2)sc1-c1ccc(C(F)(F)F)cn1 [compound 99]	≥ 80%
2.55	COC(=O)c1oc(-c2sc(-c3cccnc3)nc2C)nc1C [compound 100]	≥ 80%
2.42	Cc1nc(-c2cccnc2)sc1-c1cccc(C2=NOCCO2)c1 [compound 101]	≥ 80%
2.85	Cc1nc(-c2cccnc2)sc1-c1nnc(C(F)(F)F)s1 [compound 102]	≥ 80%
2.55	Cc1nc(-c2cccnc2)sc1-c1ccn(C(=O)NC(C)C)n1 [compound 103]	≥ 80%
3.23	Cc1nc(-c2cccnc2)sc1-c1ccn(C(=S)NC2CC2)n1 [compound 104]	≥ 80%
2.69	Cc1nc(-c2cccnc2)sc1-c1ccnc(CC2CC2)n1 [compound 105]	≥ 80%
3.42	Cc1nc(-c2cccnc2)sc1-c1ccn(-c2nnc(C3CCC3)s2)n1 [compound 106]	≥ 80%
3.85	Cc1nc(-c2cccnc2)sc1-c1ccn(-c2nnc(C3CCCC3)s2)n1 [compound 107]	≥ 80%
3.18	COc1nc(-n2ccc(-c3sc(-c4cccnc4)nc3C)n2)nc2c1CCC2 [compound 108]	≥ 80%
2.72	Cc1nc(-c2cccnc2)sc1-c1ccnc(C(F)(F)F)n1 [compound 109]	≥ 80%
3.24	Cc1nc(-c2cccnc2)sc1-c1ccn(-c2nnc(C(F)Cl)s2)n1 (stereo not shown) [compound 110]	≥ 80%
2.8	Cc1nc(-c2cccnc2)sc1-c1cc(C(F)(F)F)ncn1 [compound 111]	≥ 80%
2.64	COC(=O)c1nc(-c2sc(-c3cccnc3)nc2C)ccc1Cl [compound 112]	≥ 80%
2.23	COCC(C)NC(=O)n1ccc(-c2sc(-c3cccnc3)nc2C)n1 (stereo not shown) [compound 113]	≥ 80%
3.27	CCCOCC(C)NC(=O)n1ccc(-c2sc(-c3cccnc3)nc2C)n1 (stereo not shown) [compound 114]	≥ 80%
2.2	CCOCCNC(=O)n1ccc(-c2sc(-c3cccnc3)nc2C)n1 [compound 115]	≥ 80%
2.61	CCC(COC)NC(=O)n1ccc(-c2sc(-c3cccnc3)nc2C)n1 (stereo not shown) [compound 116]	≥ 80%
3.18	Cc1nc(-c2cccnc2)sc1-c1ccn(C(=O)NC(C)COC(C)C)n1 (stereo not shown) [compound 117]	≥ 80%
2.69	CCOCC(C)NC(=O)n1ccc(-c2sc(-c3cccnc3)nc2C)n1 (stereo not shown) [compound 118]	≥ 80%

chromatographic logP [1]	Structure (SMILES)	pest or weed control at 500 g/ha [2]
3.23	Cc1nc(-c2cccnc2)sc1-c1ccn(C(=O)NC(C)(C)C)n1 [compound 119]	≥ 80%
2.89	Cc1nc(-c2cccnc2)sc1-c1ccn(C(=O)NCC(C)C)n1 [compound 120]	≥ 80%
2.05	CCNC(=O)n1ccc(-c2sc(-c3cccnc3)nc2C)n1 [compound 121]	≥ 80%
3.56	Cc1nc(-c2cccnc2)sc1-c1ccn(C(=O)NC2CCCCC2)n1 [compound 122]	≥ 80%
2.46	CCOCCCNC(=O)n1ccc(-c2sc(-c3cccnc3)nc2C)n1 [compound 123]	≥ 80%
3.09	Cc1nc(-c2cccnc2)sc1-c1ccn(C(=O)NC2CCCC2)n1 [compound 124]	≥ 80%
2.08	Cc1nc(-c2cccnc2)sc1-c1ccn(C(=O)NC2CC2)n1 [compound 125]	≥ 80%
1.87	COCCNC(=O)n1ccc(-c2sc(-c3cccnc3)nc2C)n1 [compound 126]	≥ 80%
2.57	Cc1nc(-c2cccnc2)sc1-c1ccn(C(=O)NCC2CC2)n1 [compound 127]	≥ 80%
2.38	Cc1nc(-c2cccnc2)sc1-c1ccn(C(=O)NCC(F)(F)F)n1 [compound 128]	≥ 80%
2.34	CSCCNC(=O)n1ccc(-c2sc(-c3cccnc3)nc2C)n1 [compound 129]	≥ 80%
4.17	Cc1nc(-c2cccnc2)sc1-c1ccn(C(=O)NC(C)(C)C(C)C)n1 [compound 130]	≥ 80%
2.14	CCC(CC#N)NC(=O)n1ccc(-c2sc(-c3cccnc3)nc2C)n1 (stereo not shown) [compound 131]	≥ 80%
2.46	CCCNC(=O)n1ccc(-c2sc(-c3cccnc3)nc2C)n1 [compound 132]	≥ 80%
2.53	COC(C)(C)CNC(=O)n1ccc(-c2sc(-c3cccnc3)nc2C)n1 [compound 133]	≥ 80%
2.69	C#CC(C)(C)NC(=O)n1ccc(-c2sc(-c3cccnc3)nc2C)n1 [compound 134]	≥ 80%
3.28	COCCCNC(=S)n1ccc(-c2sc(-c3cccnc3)nc2C)n1 [compound 135]	≥ 80%
4.41	Cc1nc(-c2cccnc2)sc1-c1ccn(C(=S)NC(C)c2ccccc2)n1 (stereo not shown) [compound 136]	≥ 80%
2.65	CNC(=S)n1ccc(-c2sc(-c3cccnc3)nc2C)n1 [compound 137]	≥ 80%
2.19	Cc1nc(-c2cccnc2)sc1-c1nc(-c2ccncc2)no1 [compound 138]	≥ 80%
